{"source": "patent US11992493B1", "about": "“Use of compound or pharmaceutical derivative thereof in inhibiting CaMK2G protein activity” (priority 2022, dated 2024)", "key": {"[1]": {"target": "T1, human-derived CaMK2γ protein (Homo sapiens, UniProt Q13555)", "T1 construct": "a pET28A vector is firstly used to express and purify the human-derived full-length CaMK2γ protein; made in house; host or cells: pET28A vector", "T1 sequence (Q13555 whole entry)": "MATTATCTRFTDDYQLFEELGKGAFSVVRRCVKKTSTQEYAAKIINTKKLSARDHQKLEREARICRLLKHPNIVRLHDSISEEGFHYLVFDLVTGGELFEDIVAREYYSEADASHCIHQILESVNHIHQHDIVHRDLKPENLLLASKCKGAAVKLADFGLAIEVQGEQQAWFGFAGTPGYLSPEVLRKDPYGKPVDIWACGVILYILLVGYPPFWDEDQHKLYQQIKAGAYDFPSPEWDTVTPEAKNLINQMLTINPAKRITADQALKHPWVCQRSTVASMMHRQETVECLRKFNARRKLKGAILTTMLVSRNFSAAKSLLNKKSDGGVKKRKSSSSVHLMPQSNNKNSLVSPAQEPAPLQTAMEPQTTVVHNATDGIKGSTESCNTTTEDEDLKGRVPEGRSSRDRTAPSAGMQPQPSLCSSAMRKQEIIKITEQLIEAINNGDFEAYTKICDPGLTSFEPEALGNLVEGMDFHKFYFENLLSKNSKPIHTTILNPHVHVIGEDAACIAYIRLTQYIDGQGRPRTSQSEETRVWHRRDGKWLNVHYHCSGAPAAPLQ", "test": "SPR (Biacore, CM5 chip amine-coupling) affinity to human-derived CaMK2γ protein", "conditions": "human-derived full-length CaMK2γ protein, read-out: binding constant", "experimental": "(§1) In the embodiment of the disclosure, the affinity between T2533 and human-derived CaMK2γ protein are detected. Specifically, a pET28A vector is firstly used to express and purify the human-derived full-length CaMK2γ protein. Subsequently, the affinity is determined by the surface plasmon resonance (SPR) method of Biacore™ using a CM5 chip amine-coupling."}, "[2]": {"system": "IL17A^+ cells in dermal γδT subsets", "test": "Flow cytometry of skin lymphocytes of IMQ-induced mice", "type": "in vivo, mouse", "conditions": "5 mg/kg; compared with IMQ-induced mice without T2533", "experimental": "(§2) DMSO is used to dissolve T2533 powder, the T2533 powder is weighed according to different dosage, and then diluted with β-cyclodextrin, the final concentration of DMSO is not more than 5%. The dose gradient of T2533 is 0 mg/kg, 2.5 mg/kg, 5 mg/kg, and 10 mg/kg. Each mouse is calculated as 20 grams (g), and each mouse needs to be administered 0 mg, 0.05 mg, 0.1 mg, and 0.2 mg per day.\nSeven-week-old C57/BL6 mice are bred and modeled in SPF-level environment. […]\nIn each group of 6 mice, the hair on the back of the mice is shaved to make the exposed skin reach 4 square centimeters. […] The skin of mice is scored every day, the mice are euthanized on Day 4, and the skin tissues are taken for a series of detection.\n(§3) The skin lymphocytes of mice in the above groups are isolated and detected by flow cytometry (i.e., the detection of the proportion of IL17A^+ cells in dermal γδT subsets, the IL17A^+ cells are main effector cells mediated by the CaMK2γ pathway of psoriasis and can secrete a large number of IL-17 cytokines to aggravate psoriasis). […] Quantitative PCR is performed on known proinflammatory genes closely related to psoriasis, including Il17a, Il17f, Il22, Tnfa and Il23a."}, "IMQ-induced mice": {"system": "IMQ-induced mice", "test": "IMQ-induced psoriatic mouse model: PASI score, erythema, scaling, skin thickness, skin phenotype", "type": "in vivo", "conditions": "smeared on skin, Day−2 to Day3", "experimental": "as §2\n(§4) Seven-week-old C57/BL6 mice are bred and modeled in SPF-level environment. The experimental groups are as follows: (1) applying the skin with imiquimod (IMQ) and 0 mg/kg T2533; (2) applying the skin with IMQ and 2.5 mg/kg T2533; (3) applying the skin with IMQ and 5 mg/kg T2533; (4) applying the skin with IMQ and 10 mg/kg T2533; (5) applying the skin with Vaseline® and 0 mg/kg T2533; (6) applying the skin with Vaseline® and 2.5 mg/kg T2533; (7) applying the skin with Vaseline® and 5 mg/kg T2533; and (8) applying the skin with Vaseline® and 10 mg/kg T2533.\n(§5) In each group of 6 mice, the hair on the back of the mice is shaved to make the exposed skin reach 4 square centimeters. The start date of the experiment is set as Day−2, and the end date is set as Day4. From Day−2 to Day3, 200 μL of liquid drug is taken in the morning and evening every day and evenly smeared on the skin of mice until it is absorbed. From Day 0 to Day 3, 62.5 mg IMQ is applied to each mouse at noon of every day. The skin of mice is scored every day, the mice are euthanized on Day 4, and the skin tissues are taken for a series of detection.\nThe PASI score results and the corresponding score results of erythema, scaling, and skin thickness of the above IMQ modelled mice are shown in FIG. 9, FIG. 10, FIG. 11, and FIG. 12, respectively. The skin phenotypes and skin pathological phenotypes are shown in FIG. 13 and FIG. 14, respectively."}, "CaMK2γ": {"target": "T2, CaMK2γ (Homo sapiens, UniProt Q13555)", "T2 construct": "purchased Promega #V9201", "T2 sequence (Q13555 whole entry)": "as above", "test": "ADP-Glo Kinase Assay + CaMK2γ Kinase Enzyme System (Promega #V9201)", "type": "biochemical", "conditions": "inhibitor final concentration 10 μM, compared with positive control, p<0.0001", "experimental": "The kinase activity (%) of 130 compounds screened above are detected by ADP-Glo™ Kinase Assay+CaMK2γ Kinase Enzyme System (Promega #V9201), and the evaluation standard is kinase activity (%).\nThe kinase activity (%) of each well is calculated by the above method.\nIn the embodiment of the disclosure, the inhibition of T2533 on CaMK2γ protein activity is detected by ADP-Glo™ Kinase Assay+CaMK2 γ Kinase Enzyme System (Promega #V9201), and the specific experimental steps and settings are as follows.\n(1) well setting: 2 blank wells, 2 normal reaction wells, 2 dimethyl sulfoxide (DMSO) control wells, 40 inhibitor wells with 2 plex wells for each inhibitor and 20 inhibitors. There are 46 wells in total.\n(2) preparation of a kinase reaction reagent: • (a) preparation of 200 […] 4× Kinase Buffer is as shown in Table 5 below. 175 μL of the 4× Kinase Buffer is required for a single experiment, that is, 2.5*20+62.5+62.5=175 μL. The rest is prepared into 1× Kinase Buffer and used as blank well.\n• (b) preparation of 10 μL 5× inhibitor solution (final concentration is 10 micromoles per liter abbreviated μM), and 2.5 μL/well. Specifically, the inhibitor is 10 millimoles per liter abbreviated mM, diluted to 1 mM with DMSO in a ratio of 1:9; the preparation method of DMSO is the same as that of inhibitor, which is used as the DMSO control well, as shown in Table 6 below. […]"}, "[3]": {"system": "Il17a, Il17f, Il22, Tnfa and Il23a", "test": "Quantitative PCR of proinflammatory genes in skin of IMQ-induced mice", "type": "in vivo, mouse", "conditions": "qPCR", "experimental": "as §2, §4, §5, §3"}, "[4]": {"target": "T3, mouse-derived CaMK2γ protein (Mus musculus, UniProt Q923T9)", "T3 construct": "a pET28A vector is firstly used to express and purify the mouse-derived full-length CaMK2γ protein; made in house; host or cells: pET28A vector", "T3 sequence (Q923T9 whole entry)": "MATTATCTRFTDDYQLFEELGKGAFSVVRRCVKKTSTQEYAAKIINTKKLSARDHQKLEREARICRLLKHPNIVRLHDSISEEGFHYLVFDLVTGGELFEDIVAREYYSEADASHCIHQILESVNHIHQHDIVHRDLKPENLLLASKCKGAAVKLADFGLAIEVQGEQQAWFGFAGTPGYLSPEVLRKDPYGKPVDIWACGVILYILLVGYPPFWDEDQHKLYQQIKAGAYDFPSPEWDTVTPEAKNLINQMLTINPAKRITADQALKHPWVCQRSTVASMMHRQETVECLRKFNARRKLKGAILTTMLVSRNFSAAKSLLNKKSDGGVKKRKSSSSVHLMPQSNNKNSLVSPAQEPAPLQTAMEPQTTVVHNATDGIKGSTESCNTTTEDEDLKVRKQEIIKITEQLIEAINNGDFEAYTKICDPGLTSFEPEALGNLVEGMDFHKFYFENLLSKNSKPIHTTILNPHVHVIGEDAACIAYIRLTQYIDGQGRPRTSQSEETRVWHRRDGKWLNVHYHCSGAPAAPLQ", "test": "SPR (Biacore, CM5 chip amine-coupling) affinity to mouse-derived CaMK2γ protein", "conditions": "mouse-derived full-length CaMK2γ protein, read-out: binding constant", "experimental": "as §1, with “mouse-derived” for “human-derived”, “SPR” for “surface plasmon resonance (SPR)”"}}}
{"smiles": "CN1CCC(=C2c3ccccc3CCn3c(C=O)cnc32)CC1", "note": "[T2533, Alcaftadine]", "values": [{"measurement": "Kd", "setting": "[1]", "value": 25.4, "unit": "µM"}, {"measurement": "proportion of IL-17A^+ cells in dermal γδT subsets", "setting": "[2]", "value": "significantly reduced"}, {"measurement": "inflammatory phenotype of IMQ-induced mice", "setting": "IMQ-induced mice; 2.5 mg/kg", "value": "reduces the inflammatory phenotype"}, {"measurement": "inflammatory phenotype of IMQ-induced mice", "setting": "IMQ-induced mice; 5 mg/kg", "value": "most significant"}, {"measurement": "inflammatory phenotype of IMQ-induced mice", "setting": "IMQ-induced mice; 10 mg/kg", "value": "reduces the inflammatory phenotype"}, {"measurement": "inhibition effect on kinase activity (%)", "setting": "CaMK2γ", "value": "effectively reduce the expression of CaMK2γ protein"}, {"measurement": "inhibition effect on kinase activity (%)", "setting": "CaMK2γ; listed as compound I", "value": "most significant inhibition effect"}, {"measurement": "expression of Il17a in the skin", "setting": "[3]; 2.5 mg/kg", "value": "decrease significantly"}, {"measurement": "expression of Il17f in the skin", "setting": "[3]; 2.5 mg/kg", "value": "decrease significantly"}, {"measurement": "expression of Il22 in the skin", "setting": "[3]; 2.5 mg/kg", "value": "unchanged"}, {"measurement": "expression of Il23a in the skin", "setting": "[3]; 2.5 mg/kg", "value": "unchanged"}, {"measurement": "expression of Tnfa in the skin", "setting": "[3]; 2.5 mg/kg", "value": "unchanged"}, {"measurement": "expression of Il17a in the skin", "setting": "[3]; 5 mg/kg", "value": "decrease significantly"}, {"measurement": "expression of Il17f in the skin", "setting": "[3]; 5 mg/kg", "value": "decrease significantly"}, {"measurement": "expression of Il22 in the skin", "setting": "[3]; 5 mg/kg", "value": "unchanged"}, {"measurement": "expression of Il23a in the skin", "setting": "[3]; 5 mg/kg", "value": "decrease significantly"}, {"measurement": "expression of Tnfa in the skin", "setting": "[3]; 5 mg/kg", "value": "decrease significantly"}, {"measurement": "Kd", "setting": "[4]", "value": 68.4, "unit": "µM"}]}
